Measured values as given in PMC7967119, “Design and Synthesis of Non-Covalent Imidazo[1,2-a]quinoxaline-Based Inhibitors of EGFR and Their Anti-Cancer Assessment” (Molecules, 2021).
Where two headings read alike, the source gives them in different places. Each block holds one molecule with its values, some of them ahead of it.

How the values were obtained:
EGFR^WT = EGFR^WT (Homo sapiens, UniProt P00533); assay: EGFR inhibitory assay (Z-lyte kinase assay kit, Tyr 4 peptide, FRET-based); assay type: biochemical
EGFR^WT, sequence (P00533 25-1210): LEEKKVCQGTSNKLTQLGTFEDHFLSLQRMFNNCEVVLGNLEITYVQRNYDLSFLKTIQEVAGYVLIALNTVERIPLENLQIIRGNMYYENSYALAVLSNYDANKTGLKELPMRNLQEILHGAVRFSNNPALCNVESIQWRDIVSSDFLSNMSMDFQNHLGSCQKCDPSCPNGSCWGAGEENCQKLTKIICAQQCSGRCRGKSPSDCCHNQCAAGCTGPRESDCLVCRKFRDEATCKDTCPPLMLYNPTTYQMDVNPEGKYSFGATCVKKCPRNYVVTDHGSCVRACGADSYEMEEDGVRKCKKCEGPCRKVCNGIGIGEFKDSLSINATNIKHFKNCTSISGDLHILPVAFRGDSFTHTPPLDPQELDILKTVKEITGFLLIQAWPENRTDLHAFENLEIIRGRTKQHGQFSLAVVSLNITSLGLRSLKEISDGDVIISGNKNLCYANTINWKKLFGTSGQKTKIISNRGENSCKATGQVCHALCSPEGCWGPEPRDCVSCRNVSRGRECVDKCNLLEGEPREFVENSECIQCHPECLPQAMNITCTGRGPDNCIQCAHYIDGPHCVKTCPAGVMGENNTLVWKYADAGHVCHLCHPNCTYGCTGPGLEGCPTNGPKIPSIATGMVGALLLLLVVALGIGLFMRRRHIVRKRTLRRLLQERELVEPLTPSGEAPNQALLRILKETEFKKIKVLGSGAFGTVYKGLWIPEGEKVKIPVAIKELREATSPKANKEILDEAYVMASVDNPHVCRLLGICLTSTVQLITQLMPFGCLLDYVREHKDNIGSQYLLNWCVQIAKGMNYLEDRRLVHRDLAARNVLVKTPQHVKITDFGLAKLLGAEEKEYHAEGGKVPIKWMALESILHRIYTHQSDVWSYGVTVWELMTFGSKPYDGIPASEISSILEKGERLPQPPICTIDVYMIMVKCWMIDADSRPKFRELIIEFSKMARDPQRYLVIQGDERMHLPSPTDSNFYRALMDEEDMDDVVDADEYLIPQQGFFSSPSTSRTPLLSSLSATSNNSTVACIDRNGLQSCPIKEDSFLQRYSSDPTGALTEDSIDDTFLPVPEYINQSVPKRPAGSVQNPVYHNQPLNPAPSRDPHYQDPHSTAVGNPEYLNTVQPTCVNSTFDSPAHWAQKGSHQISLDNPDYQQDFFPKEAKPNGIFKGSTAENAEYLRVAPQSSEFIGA
Method: The test compounds were analyzed for EGFR inhibitory potential using z-lyte kinase assay kit–tyr 4 peptide assay kit (catalogue no. PV3193; Thermofisher, Mumbai, Maharashtra, India). The assay biochemically is FRET-based, which involves coupled enzyme format that relies on differential sensitivity of proteolytic cleavage of phosphorylated and non-phosphorylated peptides. The reaction proceeds in two steps, first involving the kinase reaction that is concerned with the transfer of phosphate group from ATP to single tyrosine residue, followed by development reaction, which involves site-protease role and cleaves non-phosphorylated peptide, allowing the disruption of FRET between donor and acceptor end of phosphorylated peptide, which facilitates deducing the emission ratio. The assay was performed per manufacturer protocol and per our published reports. […] Next, the assay master mix was prepared under ice-cold conditions by thawing and mixing kinase buffer (133 µL), kinase peptides (0.5 µL), phosphopeptide (0.5 µL) along with ATP (0.5 µL) solution. The master mix was added to testing compounds and further incubated for 1 h at room temperature and allowed the kinase reaction followed by development reaction to occur. After the stipulated period, reaction was stopped by addition of 5 µL stop solution to each reaction mixture.
The extent of phosphorylation was calculated by the following formula (Equation (1)):(1) % phosphorylation =1− (Emission ratio× F100%)− C100%/(C0%−C100%) + [Emission ratio (F100%−F0%)] where C0% = Average coumarin emission signal of the […]; F100% = Average Fluorescein emission signal of the 100% Phos. Control; F0% = Average Fluorescein emission signal of the 0% Phos. Control.

[1] = tested on: A549 (lung cancer) cells harboring EGFR^WT; assay: MTT antiproliferative assay, A549; settings: Homo sapiens, A549, 48 h, read-out: IC50 (μM) ± SEM, A549 (Lung Cancer)
[2] = tested on: HCT-116 WT (colon cancer) cells; assay: MTT antiproliferative assay, HCT-116 WT; settings: Homo sapiens, HCT-116, 48 h, read-out: IC50 (μM) ± SEM, HCT-116 WT (Colon Cancer)
[3] = tested on: MDA-MB-231 (breast cancer) cells; assay: MTT antiproliferative assay, MDA-MB-231; settings: Homo sapiens, MDA-MB-231, 48 h, read-out: IC50 (μM) ± SEM, MDA-MB-231 (Breast Cancer)
MCF-7 (breast) cells = assay: H2DCFDA assay of ROS in MCF-7; assay type: cell-based; settings: sub-IC50 concentration, 48 h
MDA-MB-231 cells = assay: H2DCFDA assay of ROS in MDA-MB-231; assay type: cell-based, human; settings: sub-IC50 concentration, 48 h
A549 cells = assay: Flow cytometric PI cell cycle analysis in A549; assay type: cell-based, human; settings: A549, sub-IC50 concentration, 48 h
Method: The assays were performed following our previous published reports. Briefly, A549 cells were cultured in 100 mm dishes and maintained to attain at least 80% confluency. […] After the stipulated period, the remaining media were collected along with the cells (trypsinization) and were centrifuged (1200 rpm for 5 min) and washed two times using 1X PBS. Furthermore, the cells were raised to the concentration of 400 µL and were equally divided (5 × 10^4) in four aliquots. The first three aliquots were added with H2DCFDA (10 µM/100 µL), JC-1 dye (1 mM/mL) and Annexin V and PI (as per manufacturer protocol (Thermo Fisher: V13242, Maharashtra, India) to analyze detection of alteration in ROS, ∆ψm and mode of cell death, respectively. The cancer cells were incubated in the dark for 30 min at rt before analysis. Next, the fourth aliquot cells were fixed using chilled ethanol (70%) and incubated at −20 °C for 4 h to allow fixing. After 4 h, cells were centrifuged (2200 rpm for 10 min) and washed twice with 1X PBS. Furthermore, the cells were treated with RNase and PI was added and they were further incubated for 30 min in the dark before analysis. All the samples were analyzed using BD C6 flow cytometer using various FL channels.

[4] = EGFR wild type, tested at 100, 250, 500 and 720 nM, triplicate, read-out: EGFR Inhibition IC50 (nM) ± SEM

Structure (SMILES): COc1ccc(OC)c(/C=N/c2c(C#N)nc3c(-c4cc(OC)ccc4OC)nc4ccccc4n23)c1 [Compound 6a]
IC50 (EGFR^WT; [4]): 429.81 ± 0.018 nM

Structure (SMILES): N#Cc1nc2n(c1/N=C/c1ccc([N+](=O)[O-])cc1[N+](=O)[O-])-c1ccccc1NC2c1ccc([N+](=O)[O-])cc1[N+](=O)[O-] (stereo not shown) [Compound 7g]
IC50 (EGFR^WT; [4]): 476.87 ± 0.022 nM

Structure (SMILES): CN(C)c1ccc(-c2nc3ccccc3n3c(N)c(C#N)nc23)cc1 [Compound 5c, 1-Amino-4-(4-(dimethylamino)phenyl)imidazo[1,2-a]quinoxaline-2-carbonitrile]
melting point: 169 to 171 °C
EGFR^WT inhibitory activity in words (EGFR^WT; EGFR wild type): poorly active or possessed no activity at all
IC50 (EGFR^WT; [4]): > 720 nM

Structure (SMILES): CC(C)c1ccc(-c2nc3ccccc3n3c(N)c(C#N)nc23)cc1 [Compound 5d, 1-Amino-4-(4-isopropylphenyl)imidazo[1,2-a]quinoxaline-2-carbonitrile]
melting point: 166 to 168 °C
EGFR^WT inhibitory activity in words (EGFR^WT; EGFR wild type): poorly active or possessed no activity at all
IC50 (EGFR^WT; [4]): > 720 nM

Structure (SMILES): N#Cc1nc2n(c1/N=C/c1ccc([N+](=O)[O-])cc1)-c1ccccc1NC2c1ccc([N+](=O)[O-])cc1 (stereo not shown) [Compound 7j]
IC50 [1]: 8.75 ± 0.028 µM
IC50 (EGFR^WT): 193.18 ± 0.021 nM
IC50 [2]: < 1 µM
IC50 [3]: 2.2 ± 0.026 µM

Structure (SMILES): N#Cc1nc2c(-c3ccc(Cl)cc3)nc3ccccc3n2c1/N=C/c1ccc(Cl)cc1 [Compound 6d]
EGFR^WT inhibitory activity in words (EGFR^WT; EGFR wild type): poorly active or possessed no activity at all
IC50 (EGFR^WT; [4]): > 720 nM

Structure (SMILES): COc1cc(/C=N/c2c(C#N)nc3c(-c4cc(OC)c(OC)c(OC)c4)nc4ccccc4n23)cc(OC)c1OC [Compound 6b, (E)-1-((3,4,5-Trimethoxybenzylidene)amino)-4-(3,4,5-trimethoxyphenyl)imidazo[1,2-a]quinoxaline-2-carbonitrile]
Percentage decrease in ROS, MCF-7 (MCF-7 (breast) cells): marginal
IC50 (EGFR^WT; [4]): 211.22 ± 0.027 nM
Percentage decrease in ROS, MDA-MB-231 (MDA-MB-231 cells): marginal
Cell cycle analysis G1 (%) (A549 cells): 34.51%
IC50 [2]: 5.1 ± 0.029 µM
IC50 [3]: 4.1 ± 0.031 µM

Structure (SMILES): N#Cc1nc2c(-c3cccc([N+](=O)[O-])c3)nc3ccccc3n2c1N [Compound 5b]
IC50 (EGFR^WT; [4]): 244.45 ± 0.032 nM

Structure (SMILES): C#Cc1cccc(Nc2ncnc3cc(OCCOC)c(OCCOC)cc23)c1 [Erlotinib, erlotinib, reference compound]
IC50 [2]: 2.98 ± 0.023 µM
IC50 [3]: 3.33 ± 0.018 µM

Structure (SMILES): N#Cc1nc2n(c1N)-c1ccccc1N1C(=O)CCC21 (stereo not shown) [Compound 11]
EGFR^WT inhibitory activity in words (EGFR^WT; EGFR wild type): poorly active or possessed no activity at all
IC50 (EGFR^WT; [4]): 669.39 ± 0.019 nM

Structure (SMILES): COc1ccc(/C=N/c2c(C#N)nc3c(-c4ccc(OC)c(OC)c4)nc4ccccc4n23)cc1OC [Compound 6c, (E)-1-((3,4-Dimethoxybenzylidene)amino)-4-(3,4-dimethoxy-phenyl)imidazo[1,2-a]quinoxaline-2-carbonitrile]
melting point: 170 to 172 °C
EGFR^WT inhibitory activity in words (EGFR^WT; EGFR wild type): poorly active or possessed no activity at all
IC50 (EGFR^WT; [4]): > 720 nM

Structure (SMILES): COc1cc(-c2nc3ccccc3n3c(N)c(C#N)nc23)cc(OC)c1OC [Compound 5a]
EGFR^WT inhibitory activity in words (EGFR^WT; EGFR wild type): poorly active or possessed no activity at all
IC50 (EGFR^WT; [4]): > 720 nM

Continued, in another order:

IC50 (EGFR^WT; [4]): 232.4 ± 0.031 nM
Structure (SMILES): N#Cc1nc2n(c1/N=C/c1ccco1)-c1ccccc1NC2c1ccco1 (stereo not shown) [Compound 7f]

IC50 (EGFR^WT; [4]): 247.32 ± 0.021 nM
Structure (SMILES): CC1(c2cccc([N+](=O)[O-])c2)Nc2ccccc2-n2c1nc(C#N)c2N (stereo not shown) [Compound 10a]

IC50 [1]: 6.63 ± 0.031 µM
IC50 (EGFR^WT; [4]): 223.32 ± 0.031 nM
IC50 [2]: > 25 µM
IC50 [3]: 14.1 ± 0.021 µM
Structure (SMILES): C/C(=N\c1c(C#N)nc2n1-c1ccccc1NC2(C)c1ccc(Cl)cc1)c1ccc(Cl)cc1 (stereo not shown) [Compound 9a]

IC50 (EGFR^WT; [4]): > 720 nM
Structure (SMILES): COc1ccc(/C=N/c2c(C#N)nc3n2-c2ccccc2NC3c2ccc(OC)c(OC)c2)cc1OC (stereo not shown) [Compound 7a]

IC50 (EGFR^WT; [4]): 620.17 ± 0.019 nM
Structure (SMILES): N#Cc1nc2n(c1/N=C/c1ccc(O)c(O)c1)-c1ccccc1NC2c1ccc(O)c(O)c1 (stereo not shown) [Compound 7c]

IC50 (EGFR^WT; [4]): > 720 nM
Structure (SMILES): N#Cc1ccc(C2Nc3ccccc3-n3c2nc(C#N)c3N)cc1 (stereo not shown) [Compound 8a]

IC50 [1]: 4.09 ± 0.024 µM
IC50 (EGFR^WT; [4]): 222.21 ± 0.028 nM
IC50 [2]: < 1 µM
IC50 [3]: 11.2 ± 0.022 µM
Structure (SMILES): N#Cc1nc2n(c1/N=C/c1ccccc1F)-c1ccccc1NC2c1ccccc1F (stereo not shown) [Compound 7h]

melting point: 165 to 167 °C
IC50 (EGFR^WT; [4]): > 720 nM
Structure (SMILES): N#Cc1nc2n(c1N)-c1ccccc1NC2c1ccccc1[N+](=O)[O-] (stereo not shown) [Compound 8c, 1-Amino-4-(2-nitrophenyl)-4,5-dihydroimidazo[1,2-a]quinoxaline-2-carbonitrile]

IC50 [1]: 12.06 ± 0.021 µM
IC50 (EGFR^WT; [4]): 221.53 ± 0.028 nM
IC50 [2]: 7.9 ± 0.027 µM
IC50 [3]: 13.6 ± 0.028 µM
Structure (SMILES): COc1ccc(/C(C)=N/c2c(C#N)nc3n2-c2ccccc2NC3(C)c2ccc(OC)c(OC)c2)cc1OC (stereo not shown) [Compound 9c]

IC50 (EGFR^WT; [4]): 665.89 ± 0.029 nM
Structure (SMILES): N#Cc1nc2n(c1/N=C/c1ccccc1Br)-c1ccccc1NC2c1ccccc1Br (stereo not shown) [Compound 7e]

IC50 (EGFR^WT; [4]): 624.57 ± 0.024 nM
Structure (SMILES): CC1(C)Nc2ccccc2-n2c1nc(C#N)c2N [Compound 10d]

IC50 (EGFR^WT; [4]): > 720 nM
Structure (SMILES): N#Cc1nc2n(c1/N=C/c1ccccc1[N+](=O)[O-])-c1ccccc1NC2c1ccccc1[N+](=O)[O-] (stereo not shown) [Compound 7b]

IC50 (EGFR^WT; [4]): 244.51 ± 0.021 nM
Structure (SMILES): C/C(=N\c1c(C#N)nc2n1-c1ccccc1NC2(C)c1cccs1)c1cccs1 (stereo not shown) [Compound 9b]

IC50 (EGFR^WT; [4]): 716.32 ± 0.026 nM
Structure (SMILES): N#Cc1nc2n(c1N)-c1ccccc1NC2(C(=O)c1ccccc1)c1ccccc1 (stereo not shown) [Compound 10c]

melting point: 173 to 175 °C
IC50 (EGFR^WT; [4]): > 720 nM
Structure (SMILES): N#Cc1ccc(/C=N/c2c(C#N)nc3n2-c2ccccc2NC3c2ccc(C#N)cc2)cc1 (stereo not shown) [Compound 7k, (E)-1-((4-Cyanobenzylidene)amino)-4-(4-cyanophenyl)-4,5-dihydroimidazo[1,2-a]quinoxaline-2-carbonitrile]
EGFR^WT inhibitory activity in words (EGFR^WT; EGFR wild type): poorly active or possessed no activity at all

IC50 (EGFR^WT; [4]): 652.56 ± 0.024 nM
Structure (SMILES): COc1ccc(OC)c(/C=N/c2c(C#N)nc3n2-c2ccccc2NC3c2cc(OC)ccc2OC)c1 (stereo not shown) [Compound 7d]

IC50 (EGFR^WT; [4]): > 720 nM
Structure (SMILES): N#Cc1nc2n(c1N)-c1ccccc1NC2c1cccc([N+](=O)[O-])c1 (stereo not shown) [Compound 8b]

IC50 (EGFR^WT; [4]): 613.37 ± 0.024 nM
Structure (SMILES): COc1cc(/C=N/c2c(C#N)nc3n2-c2ccccc2NC3c2cc(OC)c(OC)c(OC)c2)cc(OC)c1OC (stereo not shown) [Compound 7i]
EGFR^WT inhibitory activity in words (EGFR^WT; EGFR wild type): poorly active or possessed no activity at all
